Experimental data published in US10023592B2, “Bromodomain inhibitors” (Celgene Quanticel Research, Inc., priority 2013, dated 2018).

How the values were obtained:
[1] = target: BRD4(BD1) (Homo sapiens (Human), UniProt O60885); test: In vitro enzyme inhibition assay (BRD4 AlphaScreen); type: binding
Outline: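 AlphaScreen proximity readout, using streptavidin donor and Ni-chelate acceptor beads at 5 μg/mL final, monitors biotin-H4 tetraacetylated peptide interaction with purified His-tagged BRD4.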

[2] = tested on: Raji, human Burkitts lymphoma cells; test: Cell-MTS proliferation assay, Raji; type: cell-based; conditions: Homo sapiens, 168 hr
Outline: (§1)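 Cells were seeded per 96-well at densities giving ~90% confluence by day 7 (Raji 15,000, HL-60 5,000, NCI-H460 3,000) and dosed 24 hr later with an 11-point dilution, 100 μM to 2.0 nM final. Seven-day MTS colorimetric read at OD490; IC50 from background-subtracted, DMSO-normalised values.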

[3] = tested on: HL-60, human proleukemia cells; test: Cell-MTS proliferation assay, HL-60; type: cell-based; conditions: Homo sapiens, 168 hr
Outline: as §1

[4] = tested on: NCI-H460, human non-small cell lung cancer cells; test: Cell-MTS proliferation assay, NCI-H460; type: cell-based; conditions: Homo sapiens, 168 hr
Experimental: The Cell-MTS assay is a 7-day plate-based colorimetric assay which quantifies the amount of newly generated NADH in the presence or absence of test compound. The NADH level is used for the quantification of cancer cell proliferation.
Established cancer cell lines with a variety of driving mutations were obtained from American Type Culture Collection (ATCC) and routinely passaged according to ATCC protocols. For routine assay, these cells were seeded at densities which enabled ˜90% confluence after 7 days of culture. Raji, human Burkitts lymphoma cells, (cMYC) were seeded at 15,000 cells per 96-well. HL-60, human proleukemia cells, (NRAS, p16, p53, c-Myc amplified) were seeded at 5,000 cells per 96-well. NCI-H460, human non-small cell lung cancer cells, (KRAS, PIK3CA, STLK11, p16) were seeded at 3,000 cells per 96-well. 24 hr after plating, cells received an 11-point dilution of test compound with final concentration ranges from 100 μM to 2.0 nM. […] At the end of this incubation period, 80 μL of media is removed and 20 μL of CellTiter 96® AQueous Non-Radioactive Cell Proliferation Assay soln (Promega) was added. The cells were incubated until the OD490 was >0.6. IC50 values were calculated using the IDBS XLfit software package and include background subtracted OD490 values and normalization to DMSO controls. Cellular proliferation IC50 values were uploaded and archived using the Chem Biography Platform.

[5] = in vitro enzyme inhibition assay
[6] = NCI-H460, Cell-MTS proliferation
[7] = Raji, Cell-MTS, class symbols A/B/C
[8] = HL-60, Cell-MTS, class symbols A/B/C
[9] = NCI-H460, Cell-MTS, class symbols A/B/C
[10] = Cell-MTS proliferation, Raji cells
[11] = Cell-MTS proliferation, HL-60 cells
[12] = Cell-MTS proliferation, NCI-H460 cells

| SMILES | IC50 [1, 5] [nM] | IC50 ([2]; Raji, Cell-MTS proliferation) [nM] | IC50 ([3]; HL-60, Cell-MTS proliferation) [nM] | IC50 [4, 6] [nM] | IC50 ([1]; class symbols A/B/C) [nM] | IC50 [2, 7] [nM] | IC50 [3, 8] [nM] | IC50 [4, 9] [nM] | IC50 [2, 10] [nM] | IC50 [3, 11] [nM] | IC50 [4, 12] [nM] |
| --- | --- | --- | --- | --- | --- | --- | --- | --- | --- | --- | --- |
| Cn1cc(-c2cc(S(C)(=O)=O)ccc2O[C@H]2CC[C@H](O)CC2)c2ccccc2c1=O [Example 180, 4-[2-(trans-4-hydroxycyclohexyl)oxy-5-methylsulfonylphenyl]-2-methylisoquinolin-1-one] | < 500 | < 500 | < 500 | > 5000 |  |  |  |  |  |  |  |
| Cn1cc(-c2ccc3c(=O)n(C)cc(-c4nc(NS(C)(=O)=O)ncc4OCC4CC4)c3c2)cn1 [Example 154, N-[5-(cyclopropylmethoxy)-4-[2-methyl-6-(1-methylpyrazol-4-yl)-1-oxoisoquinolin-4-yl]pyrimidin-2-yl]methanesulfonamide] | < 500 | < 500 | < 500 | > 5000 |  |  |  |  |  |  |  |
| COc1ccc(-c2cc(N)c(=O)n(C)c2)cc1NS(C)(=O)=O [Example 109, N-[5-(5-amino-1-methyl-6-oxopyridin-3-yl)-2-methoxyphenyl]methanesulfonamide] |  |  |  |  | 500 to 5000 | > 5000 | > 5000 | > 5000 |  |  |  |
| CC(C)n1cc(Oc2cc(-c3cc(S(C)(=O)=O)ccc3OCC3CC3)cn(C)c2=O)cn1 [Example 294, 5-[2-(cyclopropylmethoxy)-5-methylsulfonylphenyl]-1-methyl-3-(1-propan-2-ylpyrazol-4-yl)oxypyridin-2-one] | < 500 | > 5000 | 500 to 5000 | > 5000 |  |  |  |  |  |  |  |
| CCS(=O)(=O)c1ccc(Oc2ccc(F)cc2F)c(-c2cc(F)c(=O)n(C)c2)c1 [Example 121, 5-[2-(2,4-difluorophenoxy)-5-ethylsulfonylphenyl]-3-fluoro-1-methylpyridin-2-one] |  |  |  |  | < 500 | 500 to 5000 | < 500 | > 5000 |  |  |  |
| Cn1cc(-c2nc(NS(C)(=O)=O)ncc2Oc2ccc(F)cc2F)c2ccoc2c1=O [Example 262, N-[5-(2,4-difluorophenoxy)-4-(6-methyl-7-oxofuro[2,3-c]pyridin-4-yl)pyrimidin-2-yl]methanesulfonamide] | < 500 | < 500 | < 500 | > 5000 |  |  |  |  |  |  |  |
| Cn1cc(-c2cc(S(C)(=O)=O)ccc2OCC2CC2)c2ccccc2c1=O [Example 89, 4-[2-(cyclopropylmethoxy)-5-methylsulfonylphenyl]-2-methylisoquinolin-1-one] |  |  |  |  | < 500 | < 500 | < 500 | > 5000 |  |  |  |
| Cn1cc(-c2cc(S(C)(=O)=O)ccc2NCC2CC2)c2c(c1=O)CCCC2 [Example 223, 4-[2-(cyclopropylmethylamino)-5-methylsulfonylphenyl]-2-methyl-5,6,7,8-tetrahydroisoquinolin-1-one] | < 500 | 500 to 5000 | < 500 | > 5000 |  |  |  |  |  |  |  |
| CCS(=O)(=O)Nc1ncc(Oc2ccc(F)cc2F)c(-c2cc(C)c(=O)n(C)c2)n1 [Example 169, N-[5-(2,4-difluorophenoxy)-4-(1,5-dimethyl-6-oxopyridin-3-yl)pyrimidin-2-yl]ethanesulfonamide] | < 500 | < 500 | < 500 | > 5000 |  |  |  |  |  |  |  |
| Cc1cc(-c2cc(S(C)(=O)=O)ccc2OCC2CC2)cn(CC2COC2)c1=O [Example 245, 5-[2-(cyclopropylmethoxy)-5-methylsulfonylphenyl]-3-methyl-1-(oxetan-3-ylmethyl)pyridin-2-one] | 500 to 5000 | > 5000 | > 5000 | > 5000 |  |  |  |  |  |  |  |
| Cn1cc(-c2cc(S(C)(=O)=O)ccc2NC2CCOC2)c2ccccc2c1=O (stereo not shown) [Example 190, 2-methyl-4-[5-methylsulfonyl-2-(oxolan-3-ylamino)phenyl]isoquinolin-1-one] | < 500 | 500 to 5000 | 500 to 5000 | > 5000 |  |  |  |  |  |  |  |
| CCS(=O)(=O)Nc1ccc(Cl)c(-c2cn(C)c(=O)c3ccc(-c4cnn(C)c4)cc23)c1 [Example 45, N-[4-chloro-3-[2-methyl-6-(1-methylpyrazol-4-yl)-1-oxoisoquinolin-4-yl]phenyl]ethanesulfonamide] |  |  |  |  | < 500 | < 500 | < 500 | 500 to 5000 |  |  |  |
| CCS(=O)(=O)Nc1cc(-c2cn(C)c(=O)c3ccc(-c4cnn(C)c4)cc23)c(OCC2CC2)cc1F [Example 209, N-[4-(cyclopropylmethoxy)-2-fluoro-5-[2-methyl-6-(1-methylpyrazol-4-yl)-1-oxoisoquinolin-4-yl]phenyl]ethanesulfonamide] | < 500 | < 500 | < 500 | > 5000 |  |  |  |  |  |  |  |
| CCS(=O)(=O)c1ccc(OCC2CC2)c(-c2cn(C)c(=O)c3ccccc23)n1 [Example 206, 4-[3-(cyclopropylmethoxy)-6-ethylsulfonylpyridin-2-yl]-2-methylisoquinolin-1-one] | < 500 | < 500 | < 500 | > 5000 |  |  |  |  |  |  |  |
| CCOc1ccc(S(=O)(=O)CC)cc1-c1cn(C)c(=O)c2cnc(-c3cnn(C)c3)nc12 [Example 227, 8-(2-ethoxy-5-ethylsulfonylphenyl)-6-methyl-2-(1-methylpyrazol-4-yl)pyrido[4,3-d]pyrimidin-5-one] | < 500 | 500 to 5000 | < 500 | > 5000 |  |  |  |  |  |  |  |

Other lines, results leading:

| IC50 [1, 5] [nM] | IC50 ([2]; Raji, Cell-MTS proliferation) [nM] | IC50 ([3]; HL-60, Cell-MTS proliferation) [nM] | IC50 [4, 6] [nM] | IC50 ([1]; class symbols A/B/C) [nM] | IC50 [2, 7] [nM] | IC50 [3, 8] [nM] | IC50 [4, 9] [nM] | IC50 [2, 10] [nM] | IC50 [3, 11] [nM] | IC50 [4, 12] [nM] | SMILES |
| --- | --- | --- | --- | --- | --- | --- | --- | --- | --- | --- | --- |
| < 500 | < 500 | < 500 | > 5000 |  |  |  |  |  |  |  | Cc1cc(-c2cc(O[C@H](C)c3ccccc3)cc(S(C)(=O)=O)c2)cn(C)c1=O [Example 341, 1,3-dimethyl-5-[3-methylsulfonyl-5-[(1R)-1-phenylethoxy]phenyl]pyridin-2-one] |
| < 500 |  |  |  |  |  |  |  | < 500 | < 500 | > 5000 | CCS(=O)(=O)c1ccc(NCC2CC2)c(-c2cc(C)c(=O)n(C)c2)c1 [Example 465, 5-[2-(cyclopropylmethylamino)-5-ethylsulfonylphenyl]-1,3-dimethylpyridin-2-one] |
| < 500 |  |  |  |  |  |  |  | 500 to 5000 | < 500 | > 5000 | Cc1cc(=O)n(C)cc1-c1cc(S(C)(=O)=O)ccc1OCC1CC1 [Example 477, 5-[2-(cyclopropylmethoxy)-5-methylsulfonylphenyl]-1,4-dimethylpyridin-2-one] |
| < 500 |  |  |  |  |  |  |  | 500 to 5000 | 500 to 5000 | > 5000 | COCC1COc2c(cc(S(C)(=O)=O)cc2-c2cn(C)c(=O)c3ccccc23)O1 (stereo not shown) [Example 501, 4-[2-(methoxymethyl)-7-methylsulfonyl-2,3-dihydro-1,4-benzodioxin-5-yl]-2-methylisoquinolin-1-one] |
| < 500 |  |  |  |  |  |  |  | 500 to 5000 | 500 to 5000 | > 5000 | Cc1cc(-c2cc(S(C)(=O)=O)ccc2OC2CCOC2)cn(C)c1=O (stereo not shown) [Example 426, 1,3-dimethyl-5-[5-methylsulfonyl-2-(oxolan-3-yloxy)phenyl]pyridin-2-one] |
| < 500 | < 500 | < 500 | 500 to 5000 |  |  |  |  |  |  |  | CCS(=O)(=O)c1ccc(OCC2CC2)c(-c2cn(C)c(=O)c3cncn23)c1 [Example 368, 5-[2-(cyclopropylmethoxy)-5-ethylsulfonylphenyl]-7-methylimidazo[1,5-a]pyrazine-8-one] |
| < 500 |  |  |  |  |  |  |  | < 500 | < 500 | > 5000 | CCS(=O)(=O)Nc1ccc(Oc2ccc(F)cc2F)c(-c2cn(C)c(=O)c3ccoc23)c1 [Example 379, N-[4-(2,4-difluorophenoxy)-3-(5-methyl-4-oxofuro[3,2-c]pyridin-7-yl)phenyl] ethanesulfonamide] |
| > 5000 |  |  |  |  |  |  |  | > 5000 | > 5000 | > 5000 | Cn1cc(-c2cc(S(N)(=O)=O)ccc2NCC2CC2)ccc1=O [Example 453, 4-(cyclopropylmethylamino)-3-(1-methyl-6-oxopyridin-3-yl)benzenesulfonamide] |
| < 500 |  |  |  |  |  |  |  | 500 to 5000 | < 500 | > 5000 | CCS(=O)(=O)c1ccc(NCC2CC2)c(-c2ccc(=O)n(C)c2)c1 [Example 473, 5-[2-(cyclopropylmethylamino)-5-ethylsulfonylphenyl]-1-methylpyridin-2-one] |
| < 500 | 500 to 5000 | < 500 | > 5000 |  |  |  |  |  |  |  | Cc1cc(-c2cc(OCc3ccccc3C#N)cc(S(C)(=O)=O)c2)cn(C)c1=O [Example 334, 2-[[3-(1,5-dimethyl-6-oxopyridin-3-yl)-5-methylsulfonylphenoxy]methyl]benzonitrile] |
